The subject of data set [1] is subject with major neurocognitive disorder of the Alzheimer type, APOE4 homozygous. In words: Compassionate use study (Expanded Access IND), clinical response and tolerability. It counts as in vivo, human. Particulars: n=1. On the procedure:
A subject who received a diagnosis of major neurocognitive disorder of the Alzheimer type was treated with ALZ-801 as part of a compassionate use study. The subject was a APOE4 homozygous and had received standard cognitive enhancing medications and was enrolled in a trial of an amyloid immunotherapy agent, but without benefit, and had no treatment options.
The subject was orally administered ALZ-801 at a dose of 265 mg BID for approximately 14 months (61 weeks, 2 days). […] For example, their motor skills improved as they made efforts to brush their teeth, get dressed, and bathe […]. They also were able to hold a phone to their […] and was walking and eating better. They were not able or willing to do the above prior to treatment with 265 mg BID ALZ-801. Further, their mood was noticeably more cheerful and content, and their verbal communication advanced. However, by the later end of the first 12-months of treatment, the improvement in the subject's symptoms plateaued and there was a decline in their cognitive status. They became apathetic, less verbal, and could no longer follow instructions.
At 62 weeks, 6 days of treatment, the dosage of ALZ-801 was increased from 265 mg BID to 265 mg TID. Remarkably, their plateau and decline in cognition ended upon commencement of the 265 mg TID dosage regimen. They were more talkative, happier, and not only completed the tasks they accomplished while on 265 mg BID ALZ-801, but improved beyond that. They understand the context of conversation and behave in a more “normal” or “natural” manner. […] A similar plateau or decline in cognitive status as observed with an ALZ-801 dosage of 265 mg BID began to manifest approximately 12 months after the beginning of the 265 mg TID ALZ-801 dosing. The subject remained on 265 mg TID ALZ-801 for approximately three more months (15 months total) until their dosage was increased to 265 mg QID (four time a day) ALZ-801, which they have maintained for the past seven months. […] Their caretakers have noted that the patient's disposition and alertness has improved, they are more responsive, more cooperative and has improved interaction with the caretakers.

The nature of data set [2]: Steady-state plasma tramiprosate pharmacokinetics, expanded access subject, TID and QID. The following applies: BID vs TID vs QID, 265 mg per dose. It counts as in vivo, human. The text has this:
The steady state pharmacokinetics of the TID and QID dosing regimen in the patient has been assayed for area under the curve (AUC) and maximum concentration (Cmax) of plasma tramiprosate (the active form of ALZ-801) and compared to BID dosing values in a population of patients in a Phase 2 human clinical trial of ALZ-801. Once the patient reaches steady state on a particular dosing regimen (any time after day 7 of a particular dosing regimen), a blood sample was collected just prior to the administration of a dose of AZL-801 and then again at 1, 2 and 4 hours post-administration of that dose. Plasma was isolated from the sample by centrifugation and the plasma samples were frozen and shipped to a bioanalytical lab for determination of tramiprosate concentrations (active moiety of ALZ-801) and calculation of AUC and Cmax. The values obtained from the plasma were then used to calculate projected brain AUC.

Entries after “also recorded” stand apart in the source; their conditions may differ.

As to `CC(C)[C@H](N)C(=O)NCCCS(=O)(=O)O` [ALZ-801, valyl-3-amino-1-propanesulfonic acid], the “duration of improvement and stabilization before plateau/decline” value in data set [1] (oral 265 mg BID) is recorded as “about 58 weeks”. The “tolerability / side effects” value in data set [1] (oral 265 mg QID) is listed as “well-tolerated with no associated nausea or noticeable side effects; also recorded: well tolerated”. Further, in data set [1] (oral 265 mg TID), the “time to plateau or decline in cognitive status after start of dosing” value is “approximately 12 months” and the “tolerability / side effects” value is reported as “without out noticeable side effects; also recorded: well-tolerated”. Moreover, the “dose proportionality of plasma AUC and Cmax (tramiprosate)” value in data set [2] is “dose proportional increases in plasma AUC and Cmax”.

The values are drawn from patent US20250041248A1, “ALZ-801 FOR USE IN TREATING ALZHEIMER'S DISEASE” (Alzheon, Inc., priority 2021, published 2025).
